Assay: Stability under high temperature and high humidity (relative humidity 75%, 40° C.)
Type: physicochemical
Procedure: In order to further evaluate the effect of temperature, humidity and light on the quality of the crystalline compounds of the present disclosure, the hydrates were placed in a dessicator with a relative humidity of 75% and at a constant temperature of 40° C. The samples were then collected at 1, 2, 3, and 6 months. Results are shown in Tables 10-14, wherein the “related substances” mean all of the ingredients in a sample except the active material. The content of the related substances in a sample was measure by HPLC in accordance to the Chinese Pharmacopeia (2005 edition, Part II, Appendix V D).

[1] = water content by TGA, 0 month, hydrate
[2] = water content by TGA, 1 month, hydrate
[3] = water content by TGA, 2 months, hydrate
[4] = water content by TGA, 3 months, hydrate
[5] = water content by TGA, 6 months, hydrate

CC(=O)NC[C@H]1CN(c2ccc(N3CCN(c4ccccc4)CC3)c(F)c2)C(=O)O1 [½ hydrate, (S)—[N-3-(3′-fluoro-4′-(4″-phenylpiperazinyl))phenyl-2-oxo-5-oxazolidinyl]methyl acetamide 1/2 hydrate]
Characters (0 month): White powder | Characters (1 month): White powder | Characters (2 months): White powder | Characters (3 months): White powder | Characters (6 months): White powder | Related substances (%) (by HPLC, 0 month, hydrate): 0.90% | Related substances (%) (by HPLC, 1 month, hydrate): 0.88% | Related substances (%) (by HPLC, 2 months, hydrate): 0.92% | Related substances (%) (by HPLC, 3 months, hydrate): 0.90% | Related substances (%) (by HPLC, 6 months, hydrate): 0.94% | TGA (%) [1]: 2.14% | TGA (%) [2]: 2.15% | TGA (%) [3]: 2.16% | TGA (%) [4]: 2.20% | TGA (%) [5]: 2.10%

CC(=O)NC[C@H]1CN(c2ccc(N3CCN(c4ccccc4)CC3)c(F)c2)C(=O)O1 [2/7 hydrate, (S)—[N-3-(3′-fluoro-4′-(4″-phenylpiperazinyl))phenyl-2-oxo-5-oxazolidinyl]methyl acetamide 2/7 hydrate]
Characters (0 month): White powder | Characters (1 month): White powder | Characters (2 months): White powder | Characters (3 months): White powder | Characters (6 months): White powder | Related substances (%) (by HPLC, 0 month, hydrate): 0.91% | Related substances (%) (by HPLC, 1 month, hydrate): 0.89% | Related substances (%) (by HPLC, 2 months, hydrate): 0.90% | Related substances (%) (by HPLC, 3 months, hydrate): 0.91% | Related substances (%) (by HPLC, 6 months, hydrate): 0.95% | TGA (%) [1]: 1.20% | TGA (%) [2]: 1.21% | TGA (%) [3]: 1.19% | TGA (%) [4]: 1.23% | TGA (%) [5]: 1.21%

CC(=O)NC[C@H]1CN(c2ccc(N3CCN(c4ccccc4)CC3)c(F)c2)C(=O)O1 [3/4 hydrate, (S)—[N-3-(3′-fluoro-4′-(4″-phenylpiperazinyl))phenyl-2-oxo-5-oxazolidinyl]methyl acetamide 3/4 hydrate]
Characters (0 month): White powder | Related substances (%) (0 month, HPLC): 0.94% | TGA (%) (0 month, listed as ¾ hydrate, hydrate): 3.10% | Characters (1 month): White powder | Related substances (%) (1 month, HPLC): 0.88% | TGA (%) (1 month, listed as ¾ hydrate, hydrate): 3.11% | Characters (2 months): White powder | Related substances (%) (2 months, HPLC): 0.90% | TGA (%) (2 months, listed as ¾ hydrate, hydrate): 3.10% | Characters (3 months): White powder | Related substances (%) (3 months, HPLC): 0.92% | TGA (%) (3 months, listed as ¾ hydrate, hydrate): 3.09% | Characters (6 months): White powder | Related substances (%) (6 months, HPLC): 0.93% | TGA (%) (6 months, listed as ¾ hydrate, hydrate): 3.10%

CC(=O)NC[C@H]1CN(c2ccc(N3CCN(c4ccccc4)CC3)c(F)c2)C(=O)O1 [1/12 hydrate, (S)—[N-3-(3′-fluoro-4′-(4″-phenylpiperazinyl))phenyl-2-oxo-5-oxazolidinyl]methyl acetamide 1/12 hydrate]
Characters (0 month): White powder | Related substances (%) (0 month, HPLC): 0.94% | TGA (%) (0 month, hydrate): 0.40% | Characters (1 month): White powder | Related substances (%) (1 month, HPLC): 0.88% | TGA (%) (1 month, hydrate): 0.38% | Characters (2 months): White powder | Related substances (%) (2 months, HPLC): 0.90% | TGA (%) (2 months, hydrate): 0.39% | Characters (3 months): White powder | Related substances (%) (3 months, HPLC): 0.92% | TGA (%) (3 months, hydrate): 0.40% | Characters (6 months): White powder | Related substances (%) (6 months, HPLC): 0.93% | TGA (%) (6 months, hydrate): 0.42%

CC(=O)NC[C@H]1CN(c2ccc(N3CCN(c4ccccc4)CC3)c(F)c2)C(=O)O1 [⅖ hydrate, (S)—[N-3-(3′-fluoro-4′-(4″-phenylpiperazinyl))phenyl-2-oxo-5-oxazolidinyl]methyl acetamide 2/5 hydrate]
Characters (0 month): White powder | Characters (1 month): White powder | Characters (2 months): White powder | Characters (3 months): White powder | Characters (6 months): White powder | Related substances (%) (by HPLC, 0 month, hydrate): 0.93% | Related substances (%) (by HPLC, 1 month, hydrate): 0.89% | Related substances (%) (by HPLC, 2 months, hydrate): 0.91% | Related substances (%) (by HPLC, 3 months, hydrate): 0.93% | Related substances (%) (by HPLC, 6 months, hydrate): 0.92% | TGA (%) [1]: 1.71% | TGA (%) [2]: 1.73% | TGA (%) [3]: 1.70% | TGA (%) [4]: 1.72% | TGA (%) [5]: 1.72%
